Assay [1] deals with T1, 5-HT1A (Rattus norvegicus, UniProt P19327).
T1 construct: Hippocampal tissue from the brains of male Charles River CD rats; from tissue; host or cells: rat hippocampus (male Charles River CD rats), crude membrane pellet
T1 sequence (P19327 1-422): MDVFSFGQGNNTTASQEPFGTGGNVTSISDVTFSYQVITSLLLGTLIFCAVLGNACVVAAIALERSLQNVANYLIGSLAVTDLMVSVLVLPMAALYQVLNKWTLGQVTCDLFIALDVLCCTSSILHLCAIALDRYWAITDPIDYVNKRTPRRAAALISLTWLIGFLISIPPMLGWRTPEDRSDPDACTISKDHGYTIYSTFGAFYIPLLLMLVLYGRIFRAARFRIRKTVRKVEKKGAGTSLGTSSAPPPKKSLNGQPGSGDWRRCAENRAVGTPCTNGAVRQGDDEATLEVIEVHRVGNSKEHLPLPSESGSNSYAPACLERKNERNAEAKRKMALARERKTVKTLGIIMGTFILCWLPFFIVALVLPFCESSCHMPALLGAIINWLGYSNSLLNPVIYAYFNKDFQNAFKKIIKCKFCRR
Briefly: inhibition of tritiated ligand ([3H]8-OH-DPAT) binding to 5-HT1A receptors, rat hippocampal tissue. Set-up: species or system male Charles River CD rats. Particulars: for Ki: 25° C., 30 minutes, pH 7.7; for inhibition at 1 µM: at 10^-6 M, read-out: % displacement of specific binding, 5-HT1A. The procedure:
Hippocampal tissue from the brains of male Charles River CD rats weighing between 150-250 g were homogenised in ice-cold 50 mM Tris-HCl buffer (pH 7.7) when measured at 25° C., 1:40 w/v) and centrifuged at 30,000 g at 4° C. for 10 minutes. The pellet was rehomogenised in the same buffer, incubated at 37° C. for 10 minutes and centrifuged at 30,000 g at 4° C. for 10 minutes. The final pellet was resuspended in 50 mM Tris-HCl buffer (pH 7.7) containing 4 mM CaCl2, 0.1% L-ascorbic acid and 10 μM pargyline hydrochloride (equivalent to 6.25 mg wet weight of tissue/ml) and used immediately in the binding assay. Aliquots (400 μl; equivalent to 2.5 mg wet weight of tissue/tube) of this suspension were added to tubes containing the ligand (50 μl; 2 nM) and distilled water (50 μl; total binding) or 5-HT (50 μl; 10 μM; non-specific binding) or test compound (50 μl; at a single concentration of 10^-6 M or at 10 concentrations ranging from 10^-11 -10^-3 M). The ligand was [^3 H]8-hydroxy-2-(dipropylamino)tetralin ([^3 H]8-OH-DPAT) and the mixture was incubated at 25° C. for 30 minutes before the incubation was terminated by rapid filtration.
The filters were washed with ice-cold Tris-HCl buffer and dried. The filters were punched out into vials, scintillation fluid added and radioactivity determined by liquid scintillation counting. The percentage displacement of specific binding of the tritiated ligand was calculated for the single concentration (10^-6 M) of test compound. Displacement curves were then produced for those compounds which displaced ≥50% of specific binding of the tritiated ligand at 10^-6 M using a range of concentrations of the compound. The concentration which gave 50% inhibition of specific binding (IC50) was obtained from the curve. The inhibition coefficient Ki was then calculated using the formula [formula] in which [ligand] is the concentration of the tritiated ligand used and KD Is the equilibrium dissociation constant for the ligand.

The target of assay [2] is T2, D2-like dopamine receptors (Rattus norvegicus, UniProt P61169).
T2 construct: Striatal tissue from the brains of male Charles River CD rats; from tissue; host or cells: rat striatum (male Charles River CD rats), crude membrane pellet
Kind of assay: inhibition of tritiated (S)-sulpiride binding to D2-like dopamine receptors, rat striatal tissue. Set-up: species or system male Charles River CD rats. Particulars: for Ki: 4° C., 40 minutes, pH 7.7; for inhibition at 1 µM: at 10^-6 M, read-out: % displacement of specific binding, D2-like. The method, then: Striatal tissue from the brains of male Charles River CD rats weighing between 140-250 g were homogenised in ice-cold 50 mM Tris-HCl buffer (pH 7.7 when measured at 25° C.) and centrifuged at 40,000 g for 10 minutes. The pellet was resuspended in Tris salts buffer (50 mM Tris-HCl buffer containing 120 mM NaCl, 5 mM KCl, 2 mM CaCl2 and 1 mM MgCl2 with the addition of 6 mM ascorbic acid; pH 7.7 when measured at 25° C.), and again centrifuged at 40,000 g for 10 minutes. The final pellet was stored at -80° C. Before each test the pellet was resuspended in Tris salts buffer (equivalent to 2 mg wet weight of tissue/ml). Aliquots (720 μl; equivalent to 1.44 mg wet weight of tissue/tube) of this suspension were then added to tubes containing the ligand (40 μl; 1 nM) and Tris salts buffer (40 μl; total binding) or spiroperidol (40 μl; 10 nM; non-specific binding) or test compound (40 μl; at a single concentration of 10^-6 M or at 6 concentrations ranging from 10^-11 -10^-4 M). The ligand was tritiated (S)-sulpiride and the mixture was incubated at 4° C. for 40 minutes before the incubation was terminated by rapid filtration.
The filters were washed with ice-cold Tris-HCl buffer and dried. The filters were punched out in to vials, scintillation fluid added and were left for about 20 hours before being counted by scintillation spectrophotometry. The percentage displacement of specific binding of the tritiated ligand was calculated for the single concentration (10^-6 M) of test compound. Displacement curves were then produced over a range of concentrations for those compounds which displaced ≥50% of specific binding of the tritiated ligand at 10^-6 M. The concentration which gave a 50% inhibition of specific binding (IC50) was obtained from the curve. The inhibition coefficient Ki was then calculated using the formula [formula] in which [ligand] is the concentration of the tritiated ligand used and KD is the equilibrium dissociation constant for the ligand.

In patent US6136825A, “Sulfonamide compounds having 5-HT receptor activity” (Knoll Aktiengesellschaft, priority 1996, dated 2000) one finds Ki and inhibition data, which are given here for 18 molecules.

Usually Ki stands for a measure of affinity in units of concentration, obtained from inhibition or displacement. A lower Ki goes with higher affinity.

T2 sequence (P61169 whole entry): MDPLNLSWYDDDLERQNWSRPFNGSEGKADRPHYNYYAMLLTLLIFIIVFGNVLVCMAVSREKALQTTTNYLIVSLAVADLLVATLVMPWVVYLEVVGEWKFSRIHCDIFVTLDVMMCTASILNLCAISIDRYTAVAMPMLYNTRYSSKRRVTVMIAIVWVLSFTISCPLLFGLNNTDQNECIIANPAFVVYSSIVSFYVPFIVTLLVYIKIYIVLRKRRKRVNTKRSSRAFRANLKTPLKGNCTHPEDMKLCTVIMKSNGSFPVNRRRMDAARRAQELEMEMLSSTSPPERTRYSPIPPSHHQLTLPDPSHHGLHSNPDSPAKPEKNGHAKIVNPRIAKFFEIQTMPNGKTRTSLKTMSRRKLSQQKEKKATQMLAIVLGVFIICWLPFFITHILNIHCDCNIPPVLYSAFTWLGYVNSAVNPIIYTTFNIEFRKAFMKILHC

As to `O=S(=O)(NCC1CCN(C[C@H]2COc3ccc(Br)cc3O2)CC1)c1cccc(Cl)c1Cl` [Example 13, (S)-(-)-N-{[1-(7-bromo-1,4-benzodioxan-2-ylmethyl)-4-piperidyl]methyl}-2,3-dichlorobenzensulphonamide], the values for the Ki in assay [1] and in assay [2] were 20 nM and 102 nM, respectively.
The corresponding values for `O=S(=O)(NCC1CCN(C[C@H]2COc3ccc(C(F)(F)F)cc3O2)CC1)c1cccc(Cl)c1Cl` [Example 14, (S)-(-)-2,3-dichloro-N-{[1-(7-trifluoromethyl-1,4-benzodioxan-2-ylmethyl)-4-piperidyl]methyl}benzenesulphonamide] are 25 nM and 111 nM.
In the case of `O=[N+]([O-])c1ccc(S(=O)(=O)NCC2CCN(C[C@H]3COc4ccc(Cl)cc4O3)CC2)c([N+](=O)[O-])c1` [Example 15, (S)-N-{[1-(7-Chloro-1,4-benzodioxan-2-ylmethyl)-4-piperidyl]methyl}-2,4-dinitrobenzenesulphonamide], the inhibition at 1 µM in assay [1] turned out to be 82%. The same molecule registered a Ki in assay [2] of 212 nM.
For `O=S(=O)(NCC1CCN(C[C@H]2COc3ccc(Cl)cc3O2)CC1)c1cc(OCC(F)(F)F)ccc1OCC(F)(F)F` [Example 16, (S)-N-{[1-(7-Chloro-1,4-benzodioxan-2-ylmethyl)-4-piperidyl]methyl}-2,5-bis(2,2,2-trifluoroethoxy)benzenesulphonamide], in assay [1], the inhibition at 1 µM turned out to be 84%. In assay [2], this molecule gave a Ki of 258 nM.
The corresponding values for `O=S(=O)(NCC1CCN(C[C@H]2COc3ccc(Cl)cc3O2)CC1)c1ccc(C(F)(F)F)cc1Cl` [Example 17, (S)-2-Chloro-N-{[1-(7-chloro-1,4-benzodioxan-2-ylmethyl)-4-piperidyl]methyl}-4-trifluoromethylbenzenesulphonamide] are 88% and 519 nM.
With `O=S(=O)(NCC1CCN(C[C@H]2COc3ccc(Cl)cc3O2)CC1)c1ccc(I)cc1` [Example 18, (S)-N-{[1-(7-Chloro-1,4-benzodioxan-2-ylmethyl)-4-piperidyl]methyl}-4-iodo-benzenesulphonamide], the inhibition at 1 µM in assay [1] came to 90%. Besides, in assay [2], the Ki is 227 nM.
As to `COc1cc(C)c(S(=O)(=O)NCC2CCN(C[C@H]3COc4ccc(Cl)cc4O3)CC2)c(C)c1C` [Example 19, (S)-N-{[1-(7-Chloro-1,4-benzodioxan-2-ylmethyl)-4-piperidyl]methyl}-4-methoxy-2,3,6-trimethylbenzenesulphonamide], the inhibition at 1 µM in assay [1] stood at 55%. For the same molecule, in assay [2], the Ki is 306 nM.
The corresponding values for `O=S(=O)(NCC1CCN(C[C@H]2COc3ccc(Cl)cc3O2)CC1)c1cc2nnoc2c2ccccc12` [Example 20, (S)-N-{[1-(7-Chloro-1,4-benzodioxan-2-ylmethyl)-4-piperidyl]methyl}naphth [2,1-d][1,2,3]oxadiazole-5-sulphonamide] are 75% and 235 nM.
Consider `Cc1cc(C)c(S(=O)(=O)NCC2CCN(C[C@H]3COc4ccc(Cl)cc4O3)CC2)c(C)c1` [Example 21, (S)-N-{[1-(7-Chloro-1,4-benzodioxan-2-ylmethyl)-4-piperidyl]methyl}-2,4,6-trimethylbenzenesulphonamide], for which the inhibition at 1 µM in assay [1] is 71%. Besides, in assay [2], the Ki was 249 nM.
In the same order, the values of `Cc1c(C)c(C)c(S(=O)(=O)NCC2CCN(C[C@H]3COc4ccc(Cl)cc4O3)CC2)c(C)c1C` [Example 22, (S)-N-{[1-(7-Chloro-1,4-benzodioxan-2-ylmethyl)-4-piperidyl]methyl}-2,3,4,5,6-pentamethylbenzenesulphonamide] are 59% and 317 nM.
With `CCN(CC)c1cccc2c(S(=O)(=O)NCC3CCN(C[C@H]4COc5ccc(Cl)cc5O4)CC3)cccc12` [Example 23, (S)-N-{[1-(7-Chloro-1,4-benzodioxan-2-ylmethyl)-4-piperidyl]methyl}-5-(diethylamino)naphthalene-1-sulphonamide], the inhibition at 1 µM in assay [1] was 82%; in assay [2] it was 83%.
For `O=S(=O)(NCC1CCN(C[C@H]2COc3ccc(Cl)cc3O2)CC1)c1ccc(C(F)(F)F)cc1` [Example 24, (S)-N-{[1-(7-Chloro-1,4-benzodioxan-2-ylmethyl)-4-piperidyl]methyl}-4-trifluoromethylbenzenesulphonamide], the inhibition at 1 µM in assay [1] turned out to be 90%. Further, the Ki in assay [2] was 533 nM.
For `O=[N+]([O-])c1cccc(S(=O)(=O)NCC2CCN(C[C@H]3COc4ccc(Cl)cc4O3)CC2)c1` [Example 25, (S)-N-{[1-(7-Chloro-1,4-benzodioxan-2-ylmethyl)-4-piperidyl]methyl}-3-nitrobenzenesulphonamide], the inhibition at 1 µM in assay [1] came out at 91%. This molecule also came in with a Ki in assay [2] of 119 nM.
In the case of `Cc1c([N+](=O)[O-])cc(S(=O)(=O)NCC2CCN(C[C@H]3COc4ccc(Cl)cc4O3)CC2)cc1[N+](=O)[O-]` [Example 26, (S)-N-{[1-(7-Chloro-1,4-benzodioxan-2-ylmethyl)-4-piperidyl]methyl}-4-methyl-3,5-dinitrobenzenesulphonamide], the inhibition at 1 µM in assay [1] was 88%; in assay [2], 87%.
As for `COc1ccc(Cl)cc1S(=O)(=O)NCC1CCN(C[C@H]2COc3ccc(Cl)cc3O2)CC1` [Example 27, (S)-5-Chloro-N-{[1-(7-chloro-1,4-benzodioxan-2-ylmethyl)-4-piperidyl]methyl}-2-methoxybenzenesulphonamide], the inhibition at 1 µM in assay [1] was found to be 68%. This molecule showed a Ki in assay [2] of 351 nM.
For the molecule `O=S(=O)(NCC1CCN(C[C@H]2COc3ccc(Cl)cc3O2)CC1)c1cccc(C(F)(F)F)c1` [Example 28, (S)-N-{[1-(7-Chloro-1,4-benzodioxan-2-ylmethyl)-4-piperidyl]methyl}-3-trifluoromethylbenzenesulphonamide], in assay [1], the inhibition at 1 µM turned out to be 68%. Further, the Ki in assay [2] is 352 nM.
The corresponding values for `O=S(=O)(NCC1CCN(C[C@H]2COc3ccc(Cl)cc3O2)CC1)c1ccc(OC(F)(F)F)cc1` [Example 29, (S)-N-{[1-(7-Chloro-1,4-benzodioxan-2-ylmethyl)-4-piperidyl]methyl}-4-trifluoromethoxybenzenesulphonamide] are 67% and 357 nM.
In the same order, the values of `O=S(=O)(NCC1CCN(C[C@H]2COc3ccc(Cl)cc3O2)CC1)c1ccc2ccccc2c1` [Example 30, (S)-N-{[1-(7-Chloro-1,4-benzodioxan-2-ylmethyl)-4-piperidyl]methyl}-2-naphthalenesulphonamide] are 65% and 241 nM.
